Laboratory results: patent US20050187191A1, “Methods and compositions for the treatment of respiratory syncytial virus” (priority 2004, published 2005)

Assays:
RSV (Long strain) = assay: RSV plaque assay with Hep-2 cell monolayers; format: cell-based; details: for EC50: human respiratory syncytial virus, 144 h, Hep-2 cell monolayers, RSV Long strain, 6 days of incubation, 0.4-50 μM in triplicate, read-out: Effective Conc. (EC50) RSV Plaque Count
Experimental: The ability of the active compounds to inhibit the growth of RSV was determined using a standard plaque assay with Hep-2 cell monolayers. The cell monolayers were infected with RSV (Long strain obtained from the American Tissue Culture Catalog, Cat# VR-26). After one hour of virus attachment, the cells were overlaid with medium containing methyl cellulose with or without serial concentrations of compound (0.4-50 μM). Each concentration was tested in triplicate. After 6 days of incubation, the overlay medium was aspirated and the cells fixed with absolute ethanol and stained with crystal violet to visualize RSV plaques and cell cytotoxicity using a 4× dissecting microscope. To determine the percent inhibition of RSV plaque formation, the mean number of RSV plaques in the presence of compound was divided by the number of RSV plaques in the control without added compounds. The quotient was subtracted from 1 and then multiplied by 100% to establish the % inhibition.

[1] = Toxicity test, 3H-thymidine incorporation (total DNA synthesis, cell growth); format: cell-based; details: cells in growth phase (cell line not given); 48 hours treatment, 6 hours 3H-thymidine pulse; highest concentration evaluated 100 μM; read-out: Toxic Conc. (TC50) Cell Growth
Experimental: Cells in growth phase were treated with serial concentrations of compound for 48 hours and pulse labeled with 3H-thymidine for 6 hours. The cells were then harvested to measure total DNA synthesis in the presence or absence of the compound (Kucera et al., Antiviral Chemistry and Chemotherapy, 9: i57-i65 (1998)).
TC50 determinations were calculated by the method of Chou et al. Elsvier: Amsterdam, 1985, as described in Piantadosi C. et al., Journal of Medicinal Chemistry, 34: 1408-1414 (1991). The TC50 for KPC-15 and KPC-11 were unable to be determined since at the highest concentration evaluated (100 μM), 50% toxicity was not observed. Thus, KPC-15 and KPC-11, lacked significant toxicity in vitro with the TC50>100 μM.

With `CCCCCCCCCC(=O)NCC(COP(=O)([O-])OCC[N+](C)(C)C)OCC` (centres unmarked) [KPC-11, decylamido-2-ethoxypropylphosphocholine] the “SI (Selectivity Index: TC50 Cell Growth divided by EC50 Plaque Inhibition)” value (RSV (Long strain)) was greater than 28, the “in vitro activity against RSV (in words)” value (RSV (Long strain)) was “potent in vitro activity against RSV” and the EC50 (RSV (Long strain)) was 3500 nM. The CC50 at 48 h [1] was greater than 100 µM.
In the case of `CCCCCCCCCCCC(=O)NCC(COP(=O)([O-])OCC[N+](C)(C)C)OCC` (centres unmarked) [KPC-15, 3-dodecylamido-2-ethoxypropylphosphocholine], the “SI (Selectivity Index: TC50 Cell Growth divided by EC50 Plaque Inhibition)” value (RSV (Long strain)) is reported as greater than 42, the “in vitro activity against RSV (in words)” value (RSV (Long strain)) is reported as “potent in vitro activity against RSV” and the EC50 (RSV (Long strain)) is reported as 2400 nM. It also gave a CC50 at 48 h [1] greater than 100 µM.
